Measurements: patent US20220018828A1, “METHODS AND KIT FOR ASSAYING LYTIC POTENTIAL OF IMMUNE EFFECTOR CELLS” (INSERM (INSTITUT NATIONAL DE LA SANTÉ ET LA RECHERCHE …, priority 2018, published 2022)

System: melanoma cells (D10)
Assay: Membrane turnover assay (FM1-43 uptake by FACS in CTL/target cell conjugates)
Type: cell-based, human
Conditions: D10 cells loaded with antigenic peptide, pretreated 2 h with 50 μM BAPTA-AM, alone or after 5 min conjugation with CTL; compared with untreated cells
Protocol: Loading of target cells: Target cells were left unpulsed or pulsed with 10 μM antigenic peptide during 2 h at 37° C./5% CO2. Cells were washed three times, re-suspended at 15×10^3 to 30×10^3 cells in 25 μl RPMI/5% FCS/HEPES and transferred to a 96-well U-bottom plate.
In some experiments, D10 cells were pretreated (2 h) or not with 50 μM BAPTA-AM (ThermoFisher Scientific).
CTL staining: CTL were stained with 10 μM CellTrace Violet (CTV, ThermoFisher Scientific) for 30 min at 37° C./5% CO2, washed three times and re-suspended at 30×10^3 to 60×10^3 cells per 25 μl RPMI/5% FCS/HEPES.
Conjugation of CTL and target cells: 25 μl of CTL (previously stained with CTV) were added in wells containing pulsed or unpulsed target cells at 2:1 CTL/target cell ratio. Target cells were previously added to three 96-U-bottom plates (one plate per time point: 2, 5 or 15 minutes). A pre-diluted solution of FM1-43 (ThermoFisher Scientific) was prepared at 20 μg/ml. 50 μl of this solution were added to wells containing in 50 μl the cells of interest to have a final concentration of 10 μg/ml. The FM1-43 solution was added to wells at the same time of CTL. Cells were pelleted during 1 minute at 455 g and incubated at 37° C./5% CO2 for 2, 5 or 15 minutes.
At the end of the incubation time, 100 μl cold FACS buffer (PBS 1% FBS 1% HS 0.1% azide) supplemented with 0.5 mM EDTA were added to each well on ice. […]

## CC(=O)OCOC(=O)CN(CC(=O)OCOC(C)=O)c1ccccc1OCCOc1ccccc1N(CC(=O)OCOC(C)=O)CC(=O)OCOC(C)=O [BAPTA-AM]
  FM1-43 uptake (fluorescence intensity) in melanoma cells: decrease of FM1-43 uptake
